Measured values published in US20250171437A1 (Agios Pharmaceuticals,Inc., priority 2022, published 2025).

Biological target: T1, human PAH with the R408W mutation (A375 R408W cells) (Homo sapiens, UniProt P00439, R408W)
T1 construct: expressed in transfected cells
T1 sequence (P00439 1-452 R408W): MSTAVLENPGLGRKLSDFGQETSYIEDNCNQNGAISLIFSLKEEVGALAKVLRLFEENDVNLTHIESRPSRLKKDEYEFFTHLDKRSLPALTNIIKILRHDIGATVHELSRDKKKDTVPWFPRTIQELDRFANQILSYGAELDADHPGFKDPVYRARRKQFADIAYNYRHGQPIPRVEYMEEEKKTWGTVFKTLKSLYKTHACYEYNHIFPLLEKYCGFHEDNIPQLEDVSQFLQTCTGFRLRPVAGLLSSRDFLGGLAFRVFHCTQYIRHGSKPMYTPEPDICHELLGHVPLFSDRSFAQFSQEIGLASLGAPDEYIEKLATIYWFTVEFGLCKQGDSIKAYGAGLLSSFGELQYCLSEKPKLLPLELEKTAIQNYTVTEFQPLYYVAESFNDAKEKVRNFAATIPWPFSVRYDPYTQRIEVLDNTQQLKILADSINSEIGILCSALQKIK
Assay: Cell Based Phenylalanine Flux Assay
Conditions: 24 hrs with compound, then 20 μM sepiapterin and 800 μM 13C9,15N-Phenylalanine for 4 hours, 13C-Tyrosine by LC-MS, average where tested multiple times
Summary of the method: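 Phenylalanine-to-tyrosine flux is measured in A375 cells carrying stable human R408W PAH. After 24 h compound exposure, 13C9,15N-Phe (800 μM) with sepiapterin (20 μM) is supplied for 4 h and media 13C-Tyr is read by LC-MS; AC50s are binned.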

[1] = A375 cells expressing R408W PAH

Structure (SMILES)	AC50 (A375 R408W cells) [nM]	AC50 [1] [nM]
Cc1ccc2oc([C@@H]3c4nc[nH]c4CCN3C(=O)c3oc(C(C)(C)O)nc3C)nc2c1 [Example 331, (S)-(2-(2-hydroxypropan-2-yl)-4-methyloxazol-5-yl)(4-(5-methylbenzo[d]oxazol-2-yl)-6,7-dihydro-1H-imidazo[4,5-c]pyridin-5(4H)-yl)methanone]	500 to 1000	
O=C(c1nnc(-c2ccn[nH]2)o1)N1CCc2[nH]cnc2C1c1nc2ccc(F)cc2o1 (centres unmarked)		1000 to 5000
Cc1cccc2oc([C@@H]3c4nc[nH]c4CCN3C(=O)c3nnc(-c4cnn(C)c4)o3)nc12 [Example 480, (S)-(5-(1-methyl-1H-pyrazol-4-yl)-1,3,4-oxadiazol-2-yl)(4-(4-methylbenzo[d]oxazol-2-yl)-6,7-dihydro-1H-imidazo[4,5-c]pyridin-5(4H)-yl)methanone]	≤ 500	
O=C(c1oc(-c2ccccn2)nc1C1CC1)N1CCc2[nH]cnc2[C@@H]1c1nc2cc(F)ccc2o1 [Example 44, (R)-(4-cyclopropyl-2-(pyridin-2-yl)oxazol-5-yl)(4-(5-fluorobenzo[d]oxazol-2-yl)-6,7-dihydro-1H-imidazo[4,5-c]pyridin-5(4H)-yl)methanone]	1000 to 5000	
O=C(c1ccnn1CC(F)F)N1CCc2[nH]cnc2[C@@H]1c1nc2cccc(F)c2o1 [Example 848, (R)-(1-(2,2-difluoroethyl)-1H-pyrazol-5-yl)(4-(7-fluorobenzo[d]oxazol-2-yl)-6,7-dihydro-1H-imidazo[4,5-c]pyridin-5(4H)-yl)methanone]	500 to 1000	
Cn1cc(-c2ncc(C(=O)N3CCc4[nH]cnc4[C@@H]3c3nc4cc(F)ccc4o3)s2)cn1 [Example 10, (R)-(4-(5-fluorobenzo[d]oxazol-2-yl)-6,7-dihydro-1H-imidazo[4,5-c]pyridin-5(4H)-yl)(2-(1-methyl-1H-pyrazol-4-yl)thiazol-5-yl)methanone]	1000 to 5000	
Cc1ccc2nc(C3c4nc[nH]c4CCN3C(=O)c3nnc(-c4ccc(F)cn4)o3)oc2c1 (centres unmarked)		1000 to 5000
COc1ccc2c(C(=O)N3CCc4[nH]cnc4[C@@H]3c3nc4c(F)cccc4o3)cnn2c1 [Example 540, (R)-(4-(4-fluorobenzo[d]oxazol-2-yl)-6,7-dihydro-1H-imidazo[4,5-c]pyridin-5(4H)-yl)(6-methoxypyrazolo[1,5-a]pyridin-3-yl)methanone]	1000 to 5000	
O=C(c1nnc(-c2ccn(C(F)F)n2)o1)N1CCc2[nH]cnc2C1c1nc2cc(C(F)(F)F)ccc2o1 (centres unmarked)		1000 to 5000
O=C(CCc1cnco1)N1CCc2[nH]cnc2C1c1nc2cc(F)ccc2o1 (centres unmarked)		1000 to 5000
O=C(c1nnc(-c2cc(C(F)(F)F)ccn2)o1)N1CCc2[nH]cnc2[C@@H]1c1nc2cc(F)ccc2o1 [Example 121, [(4R)-4-(5-fluoro-1,3-benzoxazol-2-yl)-1,4,6,7-tetrahydroimidazo[4,5-c]pyridin-5-yl]-[5-[4-(trifluoromethyl)-2-pyridyl]-1,3,4-oxadiazol-2-yl]methanone]	1000 to 5000	
COc1ccc2oc([C@@H]3c4nc[nH]c4CCN3C(=O)c3oc(C(C)(C)O)nc3C(F)F)nc2c1 [Example 339, (S)-(4-(difluoromethyl)-2-(2-hydroxypropan-2-yl)oxazol-5-yl)(4-(5-methoxybenzo[d]oxazol-2-yl)-6,7-dihydro-1H-imidazo[4,5-c]pyridin-5(4H)-yl)methanone]	500 to 1000	
Cc1cccc2oc([C@H]3c4nc[nH]c4CCN3C(=O)c3nnc(-c4cnn(C)c4)o3)nc12 [Example 479, (R)-(5-(1-methyl-1H-pyrazol-4-yl)-1,3,4-oxadiazol-2-yl)(4-(4-methylbenzo[d]oxazol-2-yl)-6,7-dihydro-1H-imidazo[4,5-c]pyridin-5(4H)-yl)methanone]	500 to 1000	
O=C(c1cnco1)N1CCc2[nH]cnc2C1c1nc2c(F)c(F)ccc2o1 (centres unmarked)		1000 to 5000
Cc1cc(F)c2oc([C@@H]3c4nc[nH]c4CCN3C(=O)c3ocnc3C(F)F)nc2c1 [Example 501, (S)-(4-(difluoromethyl)oxazol-5-yl)(4-(7-fluoro-5-methylbenzo[d]oxazol-2-yl)-6,7-dihydro-1H-imidazo[4,5-c]pyridin-5(4H)-yl)methanone]	≤ 500	
Cc1ccc2oc([C@H]3c4nc[nH]c4CCN3C(=O)c3ncc(Cl)s3)nc2c1 [Example 2, (R)-(5-chlorothiazol-2-yl)(4-(5-methylbenzo[d]oxazol-2-yl)-6,7-dihydro-1H-imidazo[4,5-c]pyridin-5(4H)-yl)methanone]	≥ 5000	

Structure (SMILES)	AC50 (A375 R408W cells) [nM]	AC50 [1] [nM]
O=C(c1cnn2cc(N3CCNCC3)ccc12)N1CCc2[nH]cnc2[C@H]1c1nc2cc(F)ccc2o1 (single isomer, unassigned)		≥ 5000
O=C(c1cnn2cc(N3CCC(O)CC3)ccc12)N1CCc2[nH]cnc2[C@@H]1c1nc2c(F)ccc(F)c2o1 [Example 896, (R)-(4-(4,7-difluorobenzo[d]oxazol-2-yl)-6,7-dihydro-1H-imidazo[4,5-c]pyridin-5(4H)-yl)(6-(4-hydroxypiperidin-1-yl)pyrazolo[1,5-a]pyridin-3-yl)methanone]	≥ 5000	
Cn1cc(C(=O)N2CCc3[nH]cnc3[C@H]2c2nc3cc(F)ccc3o2)c(C(F)F)n1 [Example 95, (S)-(3-(difluoromethyl)-1-methyl-1H-pyrazol-4-yl)(4-(5-fluorobenzo[d]oxazol-2-yl)-6,7-dihydro-1H-imidazo[4,5-c]pyridin-5(4H)-yl)methanone]	500 to 1000	
CC1CN(C(=O)c2oc(C(C)(C)O)nc2C(F)F)C(c2nc3cc(F)ccc3o2)c2nc[nH]c21 (centres unmarked)		1000 to 5000
Cc1cccc2oc([C@@H]3c4nc[nH]c4CCN3C(=O)c3ccnn3C(F)F)nc12 [Example 449, (S)-(1-(difluoromethyl)-1H-pyrazol-5-yl)(4-(4-methylbenzo[d]oxazol-2-yl)-6,7-dihydro-1H-imidazo[4,5-c]pyridin-5(4H)-yl)methanone]	≤ 500	
O=C(c1nncn1C1CC1)N1CCc2[nH]cnc2C1c1nc2cc(F)ccc2o1 (centres unmarked)		≥ 5000
O=C(c1ocnc1C(F)F)N1CCc2[nH]cnc2[C@@H]1c1nc2c(Cl)cccc2o1 [Example 438, [(4R)-4-(4-chloro-1,3-benzoxazol-2-yl)-1,4,6,7-tetrahydroimidazo[4,5-c]pyridin-5-yl]-[4-(difluoromethyl)oxazol-5-yl]methanone]	≤ 500	
O=C(c1cnn2cc(-c3ccccn3)ccc12)N1CCc2[nH]cnc2[C@H]1c1nc2c(F)cccc2o1 [Example 543, (S)-(4-(4-fluorobenzo[d]oxazol-2-yl)-6,7-dihydro-1H-imidazo[4,5-c]pyridin-5(4H)-yl)(6-(pyridin-2-yl)pyrazolo[1,5-a]pyridin-3-yl)methanone]	≤ 500	
CC(F)(F)c1ncc(C(=O)N2CCc3[nH]cnc3[C@@H]2c2nc3cc(F)ccc3o2)s1 [Example 36, (R)-(2-(1,1-difluoroethyl)thiazol-5-yl)(4-(5-fluorobenzo[d]oxazol-2-yl)-6,7-dihydro-1H-imidazo[4,5-c]pyridin-5(4H)-yl)methanone]	1000 to 5000	
CC(C)(O)c1nc(C(F)F)c(C(=O)N2CCc3[nH]cnc3[C@@H]2c2nc3cc(Cl)ccc3o2)o1 [Example 376, (R)-(4-(5-chlorobenzo[d]oxazol-2-yl)-6,7-dihydro-1H-imidazo[4,5-c]pyridin-5(4H)-yl)(4-(difluoromethyl)-2-(2-hydroxypropan-2-yl)oxazol-5-yl)methanone]	1000 to 5000	
CN(C)c1ccc2c(C(=O)N3CCc4[nH]cnc4[C@H]3c3nc4cc(F)ccc4o3)cnn2c1 [Example 91, (S)-(6-(dimethylamino)pyrazolo[1,5-a]pyridin-3-yl)(4-(5-fluorobenzo[d]oxazol-2-yl)-6,7-dihydro-1H-imidazo[4,5-c]pyridin-5(4H)-yl)methanone]	500 to 1000	
O=C(c1oc(C2(O)CC2)nc1C(F)F)N1CCc2[nH]cnc2[C@H]1c1nc2c(F)cccc2o1 [Example 215, (S)-(4-(difluoromethyl)-2-(1-hydroxycyclopropyl)oxazol-5-yl)(4-(4-fluorobenzo[d]oxazol-2-yl)-6,7-dihydro-1H-imidazo[4,5-c]pyridin-5(4H)-yl)methanone]	500 to 1000	
CC1CN(C(=O)c2ocnc2C(F)F)[C@@H](c2nc3cccc(F)c3o2)c2nc[nH]c21 (single isomer, unassigned) [Example 806]	1000 to 5000	
O=C(c1ocnc1C(F)F)N1CC2(CC2)c2[nH]cnc2[C@H]1c1nc2cccc(F)c2o1 [Example 911, (S)-(4-(difluoromethyl)oxazol-5-yl)(4′-(7-fluorobenzo[d]oxazol-2-yl)spiro[cyclopropane-1,7′-imidazo[4,5-c]pyridin]-5′(1′H,4′H,6′H)-yl)methanone]	≤ 500	
Cc1nc(C(=O)N2CCc3[nH]cnc3C2c2nc3ccccc3o2)n(C)n1 (centres unmarked)		1000 to 5000
O=C(c1cnn2cc(N3CCOCC3)ccc12)N1CCc2[nH]cnc2[C@@H]1c1nc2cccc(F)c2o1 [Example 366, (R)-(4-(7-fluorobenzo[d]oxazol-2-yl)-6,7-dihydro-1H-imidazo[4,5-c]pyridin-5(4H)-yl)(6-morpholinopyrazolo[1,5-a]pyridin-3-yl)methanone]	1000 to 5000	
